For data set [1], the system named is Mus musculus. The data set can be described thus: Toxicity in wild-type B6 mouse olfactory mucosa assessed as depletion of nonprotein sulfhydryl at 50 mg/kg, ip at 2 hrs relative to vehicle treated control. The data set is classed as organism-based. Also noted: dose 50 mg/kg, route intraperitoneal. Particulars: in vivo.
In data set [2] the test system is Mus musculus. Kind of data set: Toxicity in wild-type mouse olfactory mucosa assessed as abnormal nasal cavity and epithelium at 50 mg/kg, ip by hematoxylin/eosin staining. It counts as organism-based. Also noted: dose 50 mg/kg, route intraperitoneal. Conditions: in vivo.
Data set [3] relates to Mus musculus. Kind of data set: Toxicity in Cyp2a5-null B6 mouse olfactory mucosa assessed as depletion of nonprotein sulfhydryl at 50 mg/kg, ip at 2 hrs relative to vehicle treated control. Further details: dose 50 mg/kg, route intraperitoneal. The data set is classed as organism-based. Particulars: in vivo.
Data set [4] can be described thus: Drug metabolism in Cyp2a5-null B6 mouse olfactory mucosa microsomes assessed as rate of disappearance of compound at 5 uM after 15 mins. The data set is classed as ADME. Conditions: B6 (C57BL/6), read-out: Drug metabolism.
The subject of data set [5] is Mus musculus. Kind of data set: Toxicity in wild-type littermates mouse olfactory mucosa assessed as epithelium loss measured as intact olfactory epithelium at 50 mg/kg, ip by hematoxylin/eosin staining. It counts as organism-based. Further details: dose 50 mg/kg, route intraperitoneal. Particulars: in vivo.
Data set [6] in a line: Drug metabolism in wild-type mouse olfactory mucosa microsomes assessed as rate of disappearance of compound at 5 uM after 15 mins. It counts as ADME. Conditions: read-out: Drug metabolism.
For data set [7], the system named is Mus musculus. The data set can be described thus: Toxicity in wild-type B6 mouse olfactory mucosa assessed as epithelium loss measured as intact olfactory epithelium at 50 mg/kg, ip by hematoxylin/eosin staining. It counts as organism-based. Further details: dose 50 mg/kg, route intraperitoneal. Particulars: in vivo.
Data set [8] deals with Mus musculus. The data set can be described thus: Toxicity in wild-type mouse olfactory mucosa assessed as detached epithelium from basement membrane, fractured and disorganized at 50 mg/kg, ip by hematoxylin/eosin staining. The data set is classed as organism-based. Also noted: dose 50 mg/kg, route intraperitoneal. Conditions: in vivo.
For data set [9], the system named is Mus musculus. The data set can be described thus: Toxicity in wild-type mouse olfactory mucosa assessed as epithelium loss at 50 mg/kg, ip by hematoxylin/eosin staining. The data set is classed as organism-based. Also noted: dose 50 mg/kg, route intraperitoneal. Particulars: in vivo.
For data set [10], the system named is Mus musculus. Kind of data set: Toxicity in Cyp2a5-null B6 mouse olfactory mucosa assessed as epithelium loss measured as intact olfactory epithelium at 50 mg/kg, ip by hematoxylin/eosin staining. The data set is classed as organism-based. Further details: dose 50 mg/kg, route intraperitoneal. Particulars: in vivo.
The test system of data set [11] is Mus musculus. Kind of data set: Toxicity in Cyp2a5-null B6 mouse olfactory mucosa assessed as abnormal nasal cavity and epithelium at 50 mg/kg, ip by hematoxylin/eosin staining. It counts as organism-based. Also noted: dose 50 mg/kg, route intraperitoneal. Conditions: in vivo.
Data set [12] concerns Mus musculus. Kind of data set: Toxicity in Cyp2a5-null B6 mouse olfactory mucosa assessed as attached epithelium from basement membrane at 50 mg/kg, ip by hematoxylin/eosin staining. The data set is classed as organism-based. Further details: dose 50 mg/kg, route intraperitoneal. Conditions: in vivo.

As to `Cn1cc[nH]c1=S` [METHIMAZOLE], the Activity in the data set on Mus musculus [1] was 51.8%; in the data set on Mus musculus [2] it was “Toxic”; in the data set on Mus musculus [3], 41.5%; in the data set on Mus musculus [5], 39.8%; in the data set on Mus musculus [7] it was 14.6%; in the data set on Mus musculus [8], “Toxic”. Besides, the Activity result with Mus musculus [9] was “Toxic”; in the data set with Mus musculus [10], 60.9%; with Mus musculus [11] it was “Non-toxic”; with Mus musculus [12] it was “Non-toxic”. The metabolised at 0.25 h, 5 µM is 28.7% in [4] and 58.7% in data set [6].

Values taken from ChEMBL document CHEMBL3525940, “The tissue-specific toxicity of methimazole in the mouse olfactory mucosa is partly mediated through target-tissue metabolic activation by CYP2A5” (Drug Metab Dispos, 2011).
